Data reported in ChEMBL document CHEMBL1201862, “PubChem BioAssay data set” (2004).
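Protocol summary: plate cells (96-well), add compound at 5 concentrations, incubate 48 h, interpolate endpoints linearly. GI50: concentration for 50% inhibition of growth.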 Calls of active or inactive are those of the source. No stated cut-off is given here; in the data, active = GI50 up to about 1.1 µM and inactive = higher.

What was measured:
Assay in all cases: inhibition of tumour cell growth, NCI panel, 48 h
SNB-78 = system: SNB-78
ACHN = system: ACHN
HCT-116 = system: HCT-116
KM12 = system: KM12
MDA-MB-435 = system: MDA-MB-435
MOLT-4 = system: MOLT-4
UACC-62 = system: UACC-62
MDA-MB-231 = system: MDA-MB-231
UO-31 = system: UO-31
OVCAR-3 = system: OVCAR-3
SK-MEL-28 = system: SK-MEL-28
IGROV-1 = system: IGROV-1
MCF7 = system: MCF7
OVCAR-4 = system: OVCAR-4
OVCAR-8 = system: OVCAR-8
SK-MEL-2 = system: SK-MEL-2
M14 = system: M14
RPMI-8226 = system: RPMI-8226
DMS-273 = system: DMS-273
CAKI-1 = system: CAKI-1
NCI/ADR-RES = system: NCI/ADR-RES
BT-549 = system: BT-549
OVCAR-5 = system: OVCAR-5
NCI-H522 = system: NCI-H522
Hs-578T = system: Hs-578T
SF-268 = system: SF-268
K562 = system: K562
SK-MEL-5 = system: SK-MEL-5
SR = system: SR
T47D = system: T47D
RXF 393 = system: RXF 393
HOP-18 = system: HOP-18
EKVX = system: EKVX
HT-29 = system: HT-29
CCRF-CEM = system: CCRF-CEM
Malme-3M = system: Malme-3M
M19-MEL = system: M19-MEL
DU-145 = system: DU-145
U-251 = system: U-251
SF-539 = system: SF-539
NCI-H460 = system: NCI-H460
786-0 = system: 786-0
LXFL 529 = system: LXFL 529
SNB-75 = system: SNB-75
KM-20L2 = system: KM-20L2
HCC 2998 = system: HCC 2998
PC-3 = system: PC-3
HOP-92 = system: HOP-92
A498 = system: A498
HL-60 = system: HL-60
COLO 205 = system: COLO 205
SNB-19 = system: SNB-19
UACC-257 = system: UACC-257
NCI-H226 = system: NCI-H226
MDA-N = system: MDA-N
SK-OV-3 = system: SK-OV-3
SN12C = system: SN12C
RXF 631 = system: RXF 631
HCT-15 = system: HCT-15
DMS-114 = system: DMS-114
DLD-1 = system: DLD-1
SW-620 = system: SW-620
LOX IMVI = system: LOX IMVI
HOP-62 = system: HOP-62
SF-295 = system: SF-295
A549 = system: A549
NCI-H23 = system: NCI-H23
TK-10 = system: TK-10
XF498 = system: XF498

Measured: GI50

Cc1nc2c(nc1C)C(=O)c1ccccc1C2=O
inactive: SNB-78 26.9 µM | ACHN 10.4 µM | HCT-116 4.65 µM | KM12 5.69 µM | MOLT-4 11.8 µM | MDA-MB-231 7.55 µM | UO-31 11.7 µM | OVCAR-3 2.68 µM | SK-MEL-28 1.84 µM | IGROV-1 7.96 µM | MCF7 1.36 µM | OVCAR-4 5.36 µM | OVCAR-8 7.53 µM | SK-MEL-2 1.24 µM | RPMI-8226 11.1 µM | DMS-273 3.41 µM | CAKI-1 24.4 µM | NCI/ADR-RES 2.87 µM | BT-549 1.35 µM | OVCAR-5 4.97 µM | NCI-H522 3.54 µM | Hs-578T 2.14 µM | SF-268 10.2 µM | K562 7.67 µM | SR 8.43 µM | T47D 2.99 µM | RXF 393 15.4 µM | HOP-18 3.29 µM | EKVX 15.4 µM | HT-29 4.46 µM | CCRF-CEM 8.55 µM | DU-145 1.36 µM | U-251 6.55 µM | SF-539 4.6 µM | 786-0 8.38 µM | LXFL 529 24.4 µM | SNB-75 2.64 µM | KM-20L2 17.7 µM | HCC 2998 6.58 µM | PC-3 3.24 µM | HOP-92 18.1 µM | A498 3.74 µM | HL-60 3.98 µM | COLO 205 2.78 µM | SNB-19 5.37 µM | UACC-257 1.32 µM | NCI-H226 4.9 µM | SK-OV-3 34.5 µM | SN12C 2.48 µM | RXF 631 11.9 µM | DMS-114 9.64 µM | DLD-1 14.9 µM | SW-620 2.98 µM | HOP-62 5.2 µM | SF-295 1.48 µM | A549 1.25 µM | TK-10 20.6 µM
2.58 µM: HCT-15
active: MDA-MB-435 0.204 µM | UACC-62 0.859 µM | M14 0.871 µM | SK-MEL-5 0.188 µM | Malme-3M 0.237 µM | M19-MEL 0.258 µM | NCI-H460 0.923 µM | MDA-N 0.245 µM | LOX IMVI 1.05 µM | NCI-H23 0.5 µM

C[C@H](OCc1ccccc1)C(=O)N1CCS(=O)(=O)N2CCC[C@@H]2C1=O
> 100 µM: HCT-15
inactive: SNB-78 > 100 µM | ACHN > 100 µM | HCT-116 > 100 µM | KM12 > 100 µM | MOLT-4 > 100 µM | UACC-62 > 100 µM | UO-31 > 100 µM | OVCAR-3 > 100 µM | SK-MEL-28 > 100 µM | IGROV-1 > 100 µM | OVCAR-4 > 100 µM | OVCAR-8 > 100 µM | M14 > 100 µM | RPMI-8226 > 100 µM | CAKI-1 > 100 µM | OVCAR-5 > 100 µM | NCI-H522 > 100 µM | SF-268 > 100 µM | K562 > 100 µM | SK-MEL-5 > 100 µM | SR > 100 µM | RXF 393 > 100 µM | HOP-18 > 100 µM | EKVX > 100 µM | HT-29 > 100 µM | CCRF-CEM > 100 µM | Malme-3M > 100 µM | M19-MEL > 100 µM | U-251 > 100 µM | SF-539 > 100 µM | NCI-H460 > 100 µM | 786-0 > 100 µM | LXFL 529 > 100 µM | SNB-75 > 100 µM | KM-20L2 > 100 µM | HCC 2998 > 100 µM | HOP-92 > 100 µM | A498 > 100 µM | HL-60 > 100 µM | COLO 205 > 100 µM | SNB-19 > 100 µM | UACC-257 > 100 µM | NCI-H226 > 100 µM | SK-OV-3 > 100 µM | SN12C > 100 µM | RXF 631 > 100 µM | DMS-114 > 100 µM | DLD-1 > 100 µM | SW-620 > 100 µM | LOX IMVI > 100 µM | HOP-62 > 100 µM | SF-295 > 100 µM | A549 > 100 µM | NCI-H23 > 100 µM | TK-10 > 100 µM
active: XF498 0.746 µM
